Source: US20220339176A1, “Methods of Treatments to Prolong Gestation and Complications of Menstruation or Gestation” (priority 2019, published 2022)
Entries after “also recorded” stand apart in the source; their conditions may differ. Counter-ions that a name gives are not always drawn.

Key:
[1] = test system: uterine muscle strips from pregnant WT mice; experiment: myography of uterine muscle strips, oxytocin dose-response; parameters: species or system mouse; details: D18 strips
Protocol: (§1) Uterine muscle strips were extracted from pregnant mice and were assessed for contractibility via myography. Timed-pregnant wild-type C57/B6 mice were euthanized before making a vertical midline abdominal incision and removing each of the two uterine horns. Uterine horns were subsequently cut into 3-mm×7-mm segments and placed in a modified Krebs buffer (118 mM NaCl, […], 1.2 mM MgSO4, 1.2 mM KH2PO4, 2.5 mM CaCl2), 25 mM NaHCO3, and 11 mM glucose, pH 7.4). Muscle segments were vertically suspended on custom-made stainless steel hooks inside an organ bath filled with modified Krebs buffer, maintained at 37° C., and aerated with gas containing 95% O2 and 5% CO2. The strips were allowed to equilibrate at 1.5 g of tension for 45 min.
For the oxytocin dose-response experiments, the strips were then stimulated with oxytocin at concentrations ranging from 1 to 1000 nM, and the pattern of contraction in response to each dose was recorded for 9 min. The muscle strips were washed with Krebs solution twice and allowed to equilibrate for 3 min before the next stimulation. In separate experiments, strips were treated with the compounds before assessing the dose response to oxytocin. Contraction tracings were recorded using PowerLab and LabChart (ADInstruments).
Provided in FIGS. 5B and 5C are results of a myography experiment measuring spontaneous contractions induced by oxytocin. Myography of uterine muscle strips from pregnant WT mice at D18 was performed while incubating the strips with increasing doses of oxytocin in the presence of 1 μM Androstane-3,17-diol (black squares) or vehicle (black circles), n=4 to 7. The results are provided as old increase in area under the curve AUC (FIG. 5B), and amplitude (FIG. 5C) from baseline spontaneous contractions with vehicle and Androstane-3,17-diol. […]

[2] = test system: uterine muscle strips from pregnant WT mice; experiment: myography of uterine muscle strips, spontaneous contraction; parameters: species or system mouse
Protocol: as §1
Provided in FIG. 5A are results of a myography experiment measuring spontaneous contraction. Myography of uterine muscle strips from pregnant WT mice at D18 was performed while incubating the strips with oxytocin (OXY), Vehicle, 0.25 μM μM of DHEA-S, 1 μM of THDOC, 1 μM of estriol-16-glucuronide, or 1 μM of androstane-3,17-diol. The area under the curve was calculated for the final 180 s of each 9-min contraction tracing using GraphPad Prism (GraphPad Prism for Macintosh version 5.0; GraphPad Software). The area under the curve for each response was then normalized to the area under the curve of the baseline.
Provided in FIG. 5E are myography tracings recorded with various compound applications: 10 μM progesterone, 1 μM Androstane-3,17-diol, 0.5 μM Androstane-3,17-diol+5 μM progesterone, and 0.33 μM Androstane-3,17-diol+0.33 μM THDOC+3.3 μM progesterone. Left of the arrow is baseline contraction and to the right of the arrow indicates when the compounds were applied. […] Note that there was no obvious effect when treating the muscle with 1 μM progesterone (data not shown).

[3] = test system: human uterine smooth muscle cells; experiment: collagen gel contraction assay; type: cell-based
Pregnant C57BL/6 mice [4] = experiment: mouse model of moderate preterm birth (2 mg/kg LPS); type: in vivo; details: for gestation in vivo: 2 mg/kg LPS on D15, compounds intraperitoneal every 8 hours beginning 8 hours after LPS
Protocol: Provided in FIGS. 6A and 6B are an experimental schematic and results of compound treatment in mouse models of moderate preterm birth. Pregnant C57BL/6 mice were intraperitoneally administered 2 mg/kg LPS (Escherichia coli 0127:B8, chromatographically pure, Sigma-Aldrich) or PBS (as control) on D15. Mice were then treated with either intraperitoneal injections of vehicle (100 μl, 30% DMSO in pharmaceutical sesame oil), DHEA-S(first two doses at 0.8 mg/mouse, later doses at 0.4 mg/mouse, 100 μl), THDOC (first two doses at 0.8 mg/mouse, later doses at 0.4 mg/mouse, 100 μl), estriol-16-glucuronide (first two doses at 0.8 mg/mouse, later doses at 0.4 mg/mouse, 100 μl), androstane-3,17-diol (1.5 mg/mouse, 100 μl), Androstane-3,17-diol+progesterone (each at 0.75 mg/mouse, 100 μl), or DHEA-S+androstane-3,17-diol+progesterone (androstane-3,17-diol and progesterone each at 0.75 mg/mouse, DHEA-S at 0.27 mg/mouse for the first two doses and then 0.13 mg/mouse for the later does, 100 μl). Compound groups received the compounds via intraperitoneal injections every 8 hours, beginning 8 hours after LPS administration, up to 4 doses, and then after 12 hours before delivery.

Pregnant C57BL/6 mice [5] = experiment: treatment of healthy control mice (no LPS administration); type: in vivo; details: 1.5 mg/mouse intraperitoneal every 24 hours
Protocol: (§2) Provided in FIGS. 8A and 8B are an experimental schematic and results of tocolytic compound treatment in mouse models of severe preterm birth. In separate experiments, pregnant C57BL/6 mice were intraperitoneally administered 3 mg/kg LPS (Escherichia coli 0127:B8, chromatographically pure, Sigma-Aldrich) or PBS (as control) on D15. Treated mice were then treated with either intraperitoneal injections of vehicle or androstane-3,17-diol (1.5 mg/mouse). The androstane-3,17-diol group received […] via intraperitoneal injections every 24 hours, up to 3 days before delivery. One-third (33%) of LPS-induced preterm mice treated with androstane-3,17-diol reached full term.

Pregnant C57BL/6 mice [6] = experiment: mouse model of severe preterm birth (3 mg/kg LPS); type: in vivo; details: 3 mg/kg LPS on D15
Protocol: Provided in FIG. 7 is an experimental schematic of compound treatment in mouse models of severe preterm birth. In separate experiments, pregnant C57BL/6 mice were intraperitoneally administered 3 mg/kg LPS (Escherichia coli 0127:B8, chromatographically pure, Sigma-Aldrich) or PBS (as control) on D15. Treated mice were then treated with either intraperitoneal injections of vehicle (200 μl, 15% DMSO in pharmaceutical sesame oil) or androstane-3,17-diol (1.5 mg/mouse, 200 μl) every 12 hours, up to 5 doses before delivery.
as §2

[7] = 2 mg/kg LPS on D15, compounds intraperitoneal

SMILES: CC(=O)[C@H]1CC[C@H]2[C@@H]3CCC4=CC(=O)CC[C@]4(C)[C@H]3CC[C@]12C [progesterone, reference compound]
- effect on uterine muscle contraction with oxytocin stimulation ([1]; increasing doses of oxytocin, 10 μM progesterone, n=3): but progesterone inhibits uterine muscle contraction
- muscle contractility in myography tracings ([2]; 1 μM progesterone): no effects
- muscle contractility in myography tracings ([2]; 10 μM progesterone): first enhanced and then gradually suppressed in peak height
- ability to mitigate collagen retraction ([3]; progesterone at the same concentration as androstane-3,17-diol (10 μM)): no effect

SMILES: C[C@]12CC[C@@H](O)C[C@H]1CC[C@@H]1[C@@H]2CC[C@]2(C)[C@@H](C(=O)CO)CC[C@@H]12 [THDOC, tetrahydrodeoxycorticosterone]
- gestation in vivo (Pregnant C57BL/6 mice [4]): prolonged gestation in vivo

SMILES: C[C@]12CC[C@@H](O)C[C@@H]1CC[C@@H]1[C@@H]2CC[C@]2(C)[C@@H](O)CC[C@@H]12 (stereo in doubt) [androstane-3,17-diol]
- gestation period (Pregnant C57BL/6 mice [5]): increased gestation period beyond the typical date of delivery
- effect on oxytocin-induced uterine contractility (AUC and amplitude from baseline) ([1]; increasing doses of oxytocin, 1 μM Androstane-3,17-diol): reduced; also recorded: inhibits uterine muscle contraction with oxytocin stimulation
- muscle contractility in myography tracings ([2]; 1 μM Androstane-3,17-diol): rapid inhibition of the muscle contraction
- suppression of uterine contractility (area under the curve normalized to baseline) ([2]; D18 strips, 0.25 μM DHEA-S, 1 μM THDOC, 1 μM estriol-16-glucuronide, 1 μM androstane-3,17-diol): most significant inhibition effect
- birth outcome of preterm model females (Pregnant C57BL/6 mice [4]; [7]): Full-term live pups were birthed
- comparison of gestation results between treatment groups (Pregnant C57BL/6 mice [4]; [7]): most significant results
- gestation in vivo (Pregnant C57BL/6 mice [4]): prolonged gestation in vivo
- mice that reached full-term (Pregnant C57BL/6 mice [6]; 1.5 mg/mouse intraperitoneal every 12 hours, up to 5 doses): 1/3
- appearance of mom and pups (Pregnant C57BL/6 mice [6]; 1.5 mg/mouse intraperitoneal every 12 hours, the mouse that reached full-term): both mom and pups looked healthy
- LPS-induced preterm mice that reached full term (Pregnant C57BL/6 mice [6]; 1.5 mg/mouse intraperitoneal every 24 hours, up to 3 days): 33%
- ability to mitigate collagen retraction (gel surface area relative to no cell control) ([3]; oxytocin 100 nM, 18 hours, 2.5 μM DHEA-S, 10 μM THDOC, 10 μM estriol-16-glucuronide, 10 μM androstane-3,17-diol, 2 mM progesterone): provided the best results

SMILES: C[C@]12CC[C@H](OS(=O)(=O)O)CC1=CC[C@@H]1[C@@H]2CC[C@]2(C)C(=O)CC[C@@H]12 [DHEA-S, dehydroisoandrosterone sulfate]
- birth outcome of preterm model females (Pregnant C57BL/6 mice [4]; [7]): Full-term live pups were birthed
- gestation in vivo (Pregnant C57BL/6 mice [4]): prolonged gestation in vivo

SMILES: CC[C@H](C)[C@@H]1NC(=O)[C@H](Cc2ccc(O)cc2)NC(=O)[C@@H](N)CSSC[C@@H](C(=O)N2CCC[C@H]2C(=O)N[C@@H](CC(C)C)C(=O)NCC(N)=O)NC(=O)[C@H](CC(N)=O)NC(=O)[C@H](CCC(N)=O)NC1=O [Oxytocin, oxytocin, reference compound]
- uterine contractility (AUC, amplitude) ([1]; oxytocin 1 to 1000 nM, vehicle): induced a dose-dependent increase in uterine contractility
